The results in this text go back to patent US12077503B2, “Substituted cyclic amides and their use as herbicides” (FMC CORPORATION, priority 2015, dated 2024).

Common to all, as to assay type: in vivo
The test system of assay [1] is wheat (Triticum aestivum). The assay is described as follows: Test A postemergence. As to conditions: Triticum aestivum, post-emergence, 240 h, 125 g ai/ha, postemergence; visual injury after approximately 10 d; 0 to 100 scale (0 no effect, 100 complete control); read-out: Plant response rating, Wheat. The essentials: (§1)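 In a loam soil and sand blend, planted seeds got a preemergence directed soil spray, and young plants at the one- to two-leaf stage, 2–10 cm high, got a postemergence application; ~10 d greenhouse hold; injury rated visually, 0 = none, 100 = complete control.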

The subject of the next assay is corn (Zea mays). The assay is described as follows: Test A postemergence. The settings on record: Zea mays, post-emergence, 240 h, 125 g ai/ha, postemergence; visual injury after approximately 10 d; 0 to 100 scale (0 no effect, 100 complete control). The procedure, abridged: as §1
Assay [2] deals with Galium (catchweed bedstraw, Galium aparine). The assay is described as follows: Test A postemergence. The settings on record: Galium, post-emergence, 240 h, 125 g ai/ha, postemergence; visual injury after approximately 10 d; 0 to 100 scale (0 no effect, 100 complete control); read-out: Plant response rating, Galium. The essentials:
as §1

In assay [3] the test system is giant foxtail (Setaria faberii). The experiment in a line: Test A postemergence. As to conditions: Setaria faberi, post-emergence, 240 h, 125 g ai/ha, postemergence; visual injury after approximately 10 d; 0 to 100 scale (0 no effect, 100 complete control); read-out: Plant response rating, Foxtail, Giant. The essentials: as §1
Assay [4] concerns barnyardgrass (Echinochloa crus-galli). The experiment in a line: Test A postemergence. As to conditions: Echinochloa crus-galli, post-emergence, 240 h, 125 g ai/ha, postemergence; visual injury after approximately 10 d; 0 to 100 scale (0 no effect, 100 complete control); read-out: Plant response rating, Barnyardgrass. The essentials: as §1
Assay [5] relates to pigweed (Amaranthus retroflexus). The assay is described as follows: Test A postemergence. As to conditions: Amaranthus retroflexus, post-emergence, 240 h, 125 g ai/ha, postemergence; visual injury after approximately 10 d; 0 to 100 scale (0 no effect, 100 complete control); read-out: Plant response rating, Pigweed. The essentials:
as §1

The subject of assay [6] is ragweed (common ragweed, Ambrosia elatior). The assay is described as follows: Test A postemergence. As to conditions: Ambrosia artemisiifolia, post-emergence, 240 h, 125 g ai/ha, postemergence; visual injury after approximately 10 d; 0 to 100 scale (0 no effect, 100 complete control); read-out: Plant response rating, Ragweed. The procedure, abridged:
as §1

Assay [7] deals with ryegrass, Italian (Italian ryegrass, Lolium multiflorum). The assay is described as follows: Test A postemergence. The settings on record: Lolium multiflorum, post-emergence, 240 h, 125 g ai/ha, postemergence; visual injury after approximately 10 d; 0 to 100 scale (0 no effect, 100 complete control); read-out: Plant response rating, Ryegrass, Italian. The essentials: as §1
Assay [8] has as its system Kochia (Kochia scoparia). The assay is described as follows: Test A postemergence. The settings on record: Bassia scoparia, post-emergence, 240 h, 125 g ai/ha, postemergence; visual injury after approximately 10 d; 0 to 100 scale (0 no effect, 100 complete control); read-out: Plant response rating, Kochia. The essentials:
as §1

In assay [9] the test system is blackgrass (Alopecurus myosuroides). The assay is described as follows: Test A postemergence. The settings on record: Alopecurus myosuroides, post-emergence, 240 h, 125 g ai/ha, postemergence; visual injury after approximately 10 d; 0 to 100 scale (0 no effect, 100 complete control); read-out: Plant response rating, Blackgrass. The procedure, abridged:
as §1

In assay [10] the test system is giant foxtail (Setaria faberii). The experiment in a line: Test A preemergence. As to conditions: Setaria faberi, pre-emergence, 240 h, preemergence, read-out: Plant response rating, Foxtail, Giant. The procedure, abridged:
as §1

Assay [11] has as its system pigweed (Amaranthus retroflexus). The experiment in a line: Test A preemergence. As to conditions: Amaranthus retroflexus, pre-emergence, 240 h, preemergence, read-out: Plant response rating, Pigweed.
The subject of assay [12] is ragweed (common ragweed, Ambrosia elatior). The assay is described as follows: Test A preemergence. The settings on record: Ambrosia artemisiifolia, pre-emergence, 240 h, preemergence, read-out: Plant response rating, Ragweed. The essentials:
as §1

Assay [13] relates to ryegrass, Italian (Italian ryegrass, Lolium multiflorum). The assay is described as follows: Test A preemergence. The settings on record: Lolium multiflorum, pre-emergence, 240 h, preemergence, read-out: Plant response rating, Ryegrass, Italian. The procedure, abridged:
as §1

In assay [14] the test system is Kochia (Kochia scoparia). The assay is described as follows: Test A preemergence. As to conditions: Bassia scoparia, pre-emergence, 240 h, preemergence, read-out: Plant response rating, Kochia. The procedure, abridged: as §1
[15] abbreviates: 125 g ai/ha, visual rating after approx. 10 d, 0 to 100 scale where 0 is no effect and 100 is complete control.
[16] abbreviates: 500 g ai/ha, 0 to 100 scale, 0 = no effect, 100 = complete control.

Each structure is given as a SMILES string.

Turning to `Cc1cc([C@H]2CNC(=O)[C@@H]2C(=O)Nc2ccc(F)cc2F)ccc1F` [Compound 718], in [1], the plant injury at 125 g/ha amounted to 0%. The same compound had a Corn plant response rating (crop injury, 0 = no effect, 100 = complete kill) at 125 g/ha in the assay with corn (Zea mays) of 0%. The pest or weed control at 125 g/ha in [2] turned out to be 40%; in assay [3], 30%; in assay [4] it was 70%; in assay [5], 0%; in assay [6], 0%; in [7], 0%. Moreover, the pest or weed control at 125 g/ha was determined as 30% in the assay with Kochia (Kochia scoparia) [8]; 20% in assay [9]; 70% in assay [10] (setting [15]); 0% in assay [11] (setting [15]); 0% in assay [12] (setting [15]); 30% in [13] (setting [15]). The pest or weed control at 125 g/ha in the assay on Kochia (Kochia scoparia) [14] (setting [15]) is 0%. Moreover, the pest or weed control at 500 g/ha is 90% in assay [10] (setting [16]); 0% in assay [11] (setting [16]); 40% in [12] (setting [16]); 30% in assay [13] (setting [16]); 60% with Kochia (Kochia scoparia) [14] (setting [16]).
